Results reported in patent US20220401617A1, “ADHESIVE COMPOSITIONS COMPRISING THERAPEUTICS” (RevBio, Inc., priority 2019, published 2022).
Structures can show the parent of a compound that is named as a salt.

Assays:
[1] = type: physicochemical
Procedure: Several formulations of compositions comprising pain relievers (e.g., locally acting analgesics (e.g., naproxen and diclofenac) or local anesthetics (e.g. bupivacaine and articaine) were investigated for their affinity to the adhesive composition. The affinity of the therapeutic depends on the nature of the therapeutic and its interaction with the composition. This is measured as the partition coefficient which is the ratio of the amount of drug released from the composition to the ratio of the amount of drug retained in the composition under specific conditions.
The specific composition (e.g., adhesive composition) comprised 400 mg tetracalcium phosphate, 250 mg phosphoserine (a compound in FIG. 1V-a), and 135 μl of water that was prepared by mixing for 30 seconds, after which the mixture was formed into standard spherical substrates and allowed to cure. The substrate was then crushed using a mortar and pestle and used as a control. For the composition comprising a therapeutic, 1% w/w of the therapeutic was added to the tetracalcium phosphate and phosphoserine powder blend. The therapeutic was thoroughly mixed with tetracalcium phosphate and phosphoserine, after which deionized water was added and mixed for 30 seconds. Standard spherical substrates approximately 8 mm in diameter of adhesive composition were prepared. After curing, the substrate was crushed using mortar and pestle and the samples were incubated in 50 mL 1× PBS solution for 18 hours at 37° C. The partition coefficient of the therapeutic was evaluated using high-pressure liquid chromatography (HPLC) as shown in Table 3 below.

[2] = Release of bupivacaine from porous adhesive composition formulation (HPLC elution); type: physicochemical; conditions: 10% w/w drug, 50 mL 1x PBS, 7-day period, 37° C.
Procedure: Several formulations of compositions comprising pain relievers (e.g., local anesthetics (e.g. bupivacaine)) were investigated. […] The release study was analyzed using elution studies, where HPLC was used to analyze the amount of pain reliever released over time. The elution profile of bupivacaine from a porous adhesive composition matrix was analyzed over a 7-day period.
The particle size of calcium carbonate was between 15 nm to 40 nm. This formulation was used a control for the study. […] A bupivacaine formulation was tested by adding 10% w/w of the drug to the tetracalcium phosphate and phosphoserine powder blend. Standard spherical substrates of approximately 8 mm in diameter of porous adhesive bone regenerative were prepared. After curing, the samples were incubated in 50 mL 1× PBS solution for 7-days at 37° C.

[3] = 8% w/w naproxen, ssNMR
[4] = Properties of exemplary adhesive compositions (compound + tetra-calcium phosphate + water); type: physicochemical; conditions: mixed with tetra-calcium phosphate and water
Procedure: Exemplary adhesive compositions were prepared by providing the compounds listed in Table 1 and tetra-calcium phosphate in a suitable receptacle and mixing with water to achieve the desired consistency. While water was used as the aqueous medium in the present compositions, the aqueous medium may instead be blood, saliva, serum, or a blood-based solution or suspension. In the present compositions, the solid components (compounds, tetra-calcium phosphate) were provided as particles. However, the solid components listed in the table may be provided in particle, granule, or fiber form, and the size of each of the components may vary as described in the Detailed Description. In some embodiments, the resulting properties, such as working and setting time, may be affected by these changes. The specific mean particle, granule, or fiber size for each solid component was selected to satisfy the use requirements as described in each of the embodiments.
The compounds comprising glyphosine, O-Phospho-L-serine (OPLS), […] […] After mixing, the compositions described were applied to the desired site and the adhesive properties examined, e.g., for tensile strength and durability.

[5] = Retention/elution of gentamicin from adhesive composition matrix (HPLC); type: physicochemical; conditions: 2.5% w/w or 5% w/w gentamicin, PBS, 37° C., 10 days incubation
Procedure: Several formulations of compositions comprising antibiotics (AB) were investigated. The retention of the AB within the compositions may avoid or prevent bacterial colonization on or within the cured adhesive composition or any post-operative infection that could develop. The retention study was analyzed using elution studies, wherein high-pressure liquid chromatography (HPLC) was used to analyze the amount of AB released over time. Particularly, the elution profile of gentamicin from adhesive composition matrix was analyzed at days 1, 3, 5 and 10.
Several compositions were tested by adding either 2.5% w/w or 5% w/w of gentamicin to the tetracalcium phosphate and phosphoserine powder blend. Each cylinder was immersed in a polypropylene tube with 5 ml phosphate buffered saline (PBS) and shaken in a rotator at 37° C. Over the study period of 10 days, daily transfer of the cement cylinder into a test tube with PBS was conducted after saline washings. Elution samples of PBS was collected at various time points over a period of 10 days. The control was adhesive composition with no gentamicin, and the standard was different concentration of gentamicin alone.

Partition coefficient [1] | Compound | Properties of the adhesive composition prepared with the compound [4] | other results
0.61 | CC(=O)Oc1ccccc1C(=O)O [Aspirin] |  | 
0.37 | CCCCN1CCCCC1C(=O)Nc1c(C)cccc1C (stereo not drawn) [Bupivacaine•HCl] |  | % bupivacaine release, porous vs non-porous formulation [2]: remarkable increase
0.103 | O=C(O)Cc1ccccc1Nc1c(Cl)cccc1Cl [Diclofenac•Na] |  | 
0 | CC(C)Cc1ccc(C(C)C(=O)O)cc1 (stereo not drawn) [Ibuprofen] |  | 
 | COc1ccc2cc([C@H](C)C(=O)O)ccc2c1 [Naproxen] |  | Elution of naproxen from the adhesive composition ([3]; crushed, 10 mL 1x PBS, 4-days, 37° C.): almost fully eluted; Modification of chemical structure upon inclusion in the adhesive composition [3]: no modification of the naproxen chemical structure
 | N[C@@H](COP(=O)(O)O)C(=O)O [O-Phospho-L-serine, O-Phospho-L-Serine] | injectable, adhesive, tacky, and self-setting | 
 | O=P(O)(O)CN(CP(=O)(O)O)CP(=O)(O)O [aminotris(methylenephosphonic acid), (Nitrilotris(methylene)) triphosphonic acid] | injectable, adhesive, tacky, and self-setting | 
 | O=C(O)CN(CCN(CC(=O)O)CC(=O)O)CC(=O)O [ethylenediaminetetraacetic acid, Ethylenediamine tetraacetic acid] | injectable, adhesive, tacky, and self-setting | 
 | O=C(O)CN(CP(=O)(O)O)CP(=O)(O)O [glyphosine, N,N-Bis(phosphonomethyl)glycine] | injectable, adhesive, tacky, and self-setting | 
 | gentamicin |  | Retention of gentamicin in the adhesive composition [5]: most of gentamicin was retained
